SMILES strings stand for the structures. Values joined by “and” are separate entries in the source; they are usually repeats but may differ in a detail not shown here. Equal entries are not always repeated.

The first assay has as its system MCF-7 human breast cancer cell line. The assay can be described thus: Alamar Blue assay for antiproliferative effects. Type of assay: cell-based. The conditions noted are these: Homo sapiens, MCF7, 72 h, MCF-7, 72 h, Alamar Blue; read-out: IC50 (μM), antiproliferative effects. (Alamar Blue is a resazurin reagent that responds to reducing activity.)
As a reminder, the IC50 is the midpoint of a concentration-inhibition curve. As for `CCC(=C(c1ccc(O)cc1)c1ccc(OCCN(C)C(=O)/C(=C/c2cc(OC)c(OC)c(OC)c2)c2cc(OC)cc(OC)c2)cc1)c1ccccc1` (mixture of isomers) [Compound 3b, (E/Z)-2-(3,5-Dimethoxyphenyl)-N-(2-(4-((Z)-1-(4-hydroxyphenyl)-2-phenylbut-1-en-1-yl)phenoxy)ethyl)-N-methyl-3-(3,4,5-trimethoxyphenyl)acrylamide], the IC50 was above 50 µM.

With `CCC(=C(c1ccc(O)cc1)c1ccc(OCCN(C)C(=O)/C(=C/c2cc(OC)c(OC)c(OC)c2)c2cc(OC)c(OC)c(OC)c2)cc1)c1ccccc1` (mixture of isomers) [Compound 3c, (E/Z)-N-(2-(4-((Z)-1-(4-Hydroxyphenyl)-2-phenylbut-1-en-1-yl)phenoxy)ethyl)-N-methyl-2,3-bis(3,4,5-trimethoxyphenyl)acrylamide], the IC50 was above 50 µM.

With `CCC(=C(c1ccc(O)cc1)c1ccc(OCCN(C)C(=O)/C(=C/c2ccc(OC)c(O)c2)c2cc(OC)cc(OC)c2)cc1)c1ccccc1` (mixture of isomers) [Compound 3d, (E/Z)-2-(3,5-Dimethoxyphenyl)-3-(3-hydroxy-4-methoxyphenyl)-N-(2-(4-((Z)-1-(4-hydroxyphenyl)-2-phenylbut-1-en-1-yl)phenoxy)ethyl)-N-methylacrylamide], the IC50 is above 50 µM.

Regarding `CCC(=C(c1ccc(O)cc1)c1ccc(OCCN(C)C(=O)/C(=C/c2ccc(O)c(O)c2)c2cc(OC)c(OC)c(OC)c2)cc1)c1ccccc1` (mixture of isomers) [Compound 3e, (E/Z)-3-(3,4-Dihydroxyphenyl)-N-(2-(4-((Z)-1-(4-hydroxyphenyl)-2-phenylbut-1-en-1-yl)phenoxy)ethyl)-N-methyl-2-(3,4,5-trimethoxyphenyl)acrylamide], the IC50 is above 50 µM.

In the case of `CCC(=C(c1ccc(O)cc1)c1ccc(OCCN(C)C(=O)/C(=C/c2cccc(O)c2)c2cc(OC)c(OC)c(OC)c2)cc1)c1ccccc1` (mixture of isomers) [Compound 3f, (E/Z)-3-(3-Hydroxyphenyl)-N-(2-(4-((Z)-1-(4-hydroxyphenyl)-2-phenylbut-1-en-1-yl)phenoxy)ethyl)-N-methyl-2-(3,4,5-trimethoxyphenyl)acrylamide], the IC50 is above 50 µM.

Consider `CCC(=C(c1ccc(O)cc1)c1ccc(OCCN(C)C(=O)/C(=C/c2ccc(OC)c(OC)c2)c2cc(OC)c(OC)c(OC)c2)cc1)c1ccccc1` (mixture of isomers) [Compound 3g, (E/Z)-3-(3,4-Dimethoxyphenyl)-N-(2-(4-((Z)-1-(4-hydroxyphenyl)-2-phenylbut-1-en-1-yl)phenoxy)ethyl)-N-methyl-2-(3,4,5-trimethoxyphenyl)acrylamide], for which the IC50 is above 50 µM.

With `CCC(=C(c1ccc(O)cc1)c1ccc(OCCN(C)C(=O)/C(=C/c2ccc(OC)c(OC)c2OC)c2cc(OC)c(OC)c(OC)c2)cc1)c1ccccc1` (mixture of isomers) [Compound 3h, (E/Z)-N-(2-(4-((Z)-1-(4-Hydroxyphenyl)-2-phenylbut-1-en-1-yl)phenoxy)ethyl)-N-methyl-3-(2,3,4-tri-methoxyphenyl)-2-(3,4,5-trimethoxyphenyl)acrylamide], the IC50 was above 50 µM.

With `CCC(=C(c1ccc(O)cc1)c1ccc(OCCN(C)C(=O)/C(=C/c2cc(OC)c(O)c(OC)c2)c2cc(OC)c(OC)c(OC)c2)cc1)c1ccccc1` (mixture of isomers) [Compound 3j, (E/Z)-3-(4-Hydroxy-3,5-dimethoxyphenyl)-N-(2-(4-((Z)-1-(4-hydroxyphenyl)-2-phenylbut-1-en-1-yl)-phenoxy)ethyl)-N-methyl-2-(3,4,5-trimethoxyphenyl)acrylamide], the IC50 turned out to be 11.8 µM.

For the compound `CCC(=C(c1ccc(O)cc1)c1ccc(OCCN(C)C(=O)/C(=C/c2ccc(C)s2)c2cc(OC)c(OC)c(OC)c2)cc1)c1ccccc1` (mixture of isomers) [Compound 3l, (E/Z)-N-(2-(4-((E)-1-(4-Hydroxyphenyl)-2-phenylbut-1-en-1-yl)phenoxy)ethyl)-N-methyl-3-(5-methyl-thiophen-2-yl)-2-(3,4,5-trimethoxyphenyl)acrylamide], the IC50 was above 50 µM.

As for `CCC(=C(c1ccc(O)cc1)c1ccc(OCCN(C)C(=O)/C=C/c2cc(OC)c(OC)c(OC)c2)cc1)c1ccccc1` (mixture of isomers) [Compound 5c, (E/Z)-N-(2-(4-((Z)-1-(4-Hydroxyphenyl)-2-phenylbut-1-en-1-yl)phenoxy)ethyl)-N-methyl-3-(3,4,5-tri-methoxyphenyl)acrylamide], the IC50 was above 100 µM.

As for `CCC(=C(c1ccc(O)cc1)c1ccc(OCCN(C)C(=O)CCc2cc(OC)c(OC)c(OC)c2)cc1)c1ccccc1` (mixture of isomers) [Compound 5d, N-(2-(4-((E/Z)-1-(4-Hydroxyphenyl)-2-phenylbut-1-enyl)phenoxy)ethyl)-3-(3,4,5-trimethoxyphenyl)-N-methylpropanamide], the IC50 was above 100 µM.

Consider `CNCCOc1ccc(C(=C2CCCC2)c2ccc(O)cc2)cc1` [Compound 11a, 4-(Cyclopentylidene(4-(2-(methylamino)ethoxy)phenyl)methyl)phenol], for which the IC50 turned out to be 3.09 µM.

The same assay, now with this note: Homo sapiens, MCF7, 72 h, read-out: IC50 (μM), antiproliferative effects.
On to `CCC(=C(c1ccc(O)cc1)c1ccc(OCCN(C)C(=O)/C(=C/c2ccc(OC)c([N+](=O)[O-])c2)c2cc(OC)c(OC)c(OC)c2)cc1)c1ccccc1` (mixture of isomers) [Compound 3a, (E/Z)-N-(2-(4-((E)-1-(4-Hydroxyphenyl)-2-phenylbut-1-en-1-yl)phenoxy)ethyl)-3-(4-methoxy-3-nitro-phenyl)-N-methyl-2-(3,4,5-trimethoxyphenyl)acrylamide], for which the IC50 is above 50 µM.

The assay is the same for the next values; noted with them: Homo sapiens, MCF7, read-out: growth inhibition.
The inhibition is the share of the control response that was lost under treatment. Regarding `COc1ccc(/C(=C\c2cc(OC)c(OC)c(OC)c2)C(N)=O)cc1` [Compound 3n, (E)-2-(4-Methoxyphenyl)-3-(3,4,5-trimethoxyphenyl)acrylamide], the inhibition at 1 µM amounted to 20%.

Regarding `CCN(CC)C(=O)/C(=C/c1ccc(OC)c(O)c1)c1cc(OC)c(OC)c(OC)c1` [Compound 3o, (E)-N,N-diethyl-3-(3-hydroxy-4-methoxyphenyl)-2-(3,4,5-trimethoxyphenyl) acrylamide], the inhibition at 1 µM was found to be 16%.

Staying with this assay, now noted: Homo sapiens, MCF7; MCF-7, at 1 μM; read-out: growth inhibition.
Turning to `COc1ccc(/C=C(/C(N)=O)c2cc(OC)c(OC)c(OC)c2)cc1` [Compound 3p, (E)-3-(4-Methoxyphenyl)-2-(3,4,5-trimethoxyphenyl)acrylamide], the inhibition at 1 µM was 60%.

Regarding `CCN(CC)C(=O)/C(=C/c1ccc(OC)cc1)c1cc(OC)c(OC)c(OC)c1` [Compound 3q, (E)-N,N-Diethyl-3-(4-methoxyphenyl)-2-(3,4,5-trimethoxyphenyl)acrylamide], the inhibition at 1 µM turned out to be 25%.

Still in this assay, the particulars now being: MCF-7, 72 h, Alamar Blue; read-out: IC50 (μM), antiproliferative effects.
For `CCC(=C(c1ccc(O)cc1)c1ccc(OCCN(C)C(=O)/C(=C/c2cc(OC)c(O)c(OC)c2)c2cc(OC)c(OC)c(OC)c2)cc1)c1ccccc1` (mixture of isomers) [Compound 3j, (E/Z)-3-(4-Hydroxy-3,5-dimethoxyphenyl)-N-(2-(4-((Z)-1-(4-hydroxyphenyl)-2-phenylbut-1-en-1-yl)-phenoxy)ethyl)-N-methyl-2-(3,4,5-trimethoxyphenyl)acrylamide], the half-maximal inhibitory concentration (IC50) turned out to be 11.8 µM.

As for `CC/C(=C(\c1ccc(O)cc1)c1ccc(OCCN(C)C(=O)C=Cc2ccc(OC)c(O)c2)cc1)c1ccccc1` (mixture of isomers) [Compound 5a, (E/Z)-3-(3-Hydroxy-4-methoxyphenyl)-N-(2-(4-((Z)-1-(4-hydroxyphenyl)-2-phenylbut-1-en-1-yl)phenoxy)-ethyl)-N-methylacrylamide], the IC50 amounted to 51.3 µM.

Take `CCC(=C(c1ccc(O)cc1)c1ccc(OCCN(C)C(=O)CCc2ccc(OC)c(O)c2)cc1)c1ccccc1` (mixture of isomers) [Compound 5b, (E/Z)-3-(3-hydroxy-4-methoxyphenyl)-N-(2-(4-(1-(4-hydroxyphenyl)-2-phenylbut-1-en-1-yl)phenoxy)ethyl)-N-methylpropanamide]: the IC50 was 46.7 µM and 46.8 µM.

As to `CCC(=C(c1ccc(O)cc1)c1ccc(OCCN(C)C(=O)/C=C/c2cc(OC)c(OC)c(OC)c2)cc1)c1ccccc1` (mixture of isomers) [Compound 5c, (E/Z)-N-(2-(4-((Z)-1-(4-Hydroxyphenyl)-2-phenylbut-1-en-1-yl)phenoxy)ethyl)-N-methyl-3-(3,4,5-tri-methoxyphenyl)acrylamide], the IC50 was above 50 µM.

`CCC(=C(c1ccc(O)cc1)c1ccc(OCCN(C)C(=O)CCc2cc(OC)c(OC)c(OC)c2)cc1)c1ccccc1` (mixture of isomers) [Compound 5d, N-(2-(4-((E/Z)-1-(4-Hydroxyphenyl)-2-phenylbut-1-enyl)phenoxy)ethyl)-3-(3,4,5-trimethoxyphenyl)-N-methylpropanamide]: the IC50 is above 50 µM.

(Values after paper PMC6151695, “Novel Selective Estrogen Receptor Ligand Conjugates Incorporating Endoxifen-Combretastatin and Cyclofenil-Combretastatin Hybrid Scaffolds: Synthesis and Biochemical Evaluation” (Molecules : A Journal of Synthetic Chemistry and Natural …, 2017).)
